From patent US9783537B2, “3-(4-ethylnylphenyl) pyridopyrimidinone compounds and process for preparation thereof useful as potential anticancer agents” (Council of Scientific & Industrial Research, priority 2013, dated 2017)

These compounds were tested on SK-MEL-2 (assay: SRB 48 h growth assay, Melanoma SK-MEL-2). Conditions: Homo sapiens, SK-MEL-2, Melanoma, read-out: Log10 LC50 (converted).
Format: cell-based, human
`C#Cc1ccc(-n2c(/C=C/c3ccc4ccccc4c3)nc3ncccc3c2=O)cc1` [4s, (E)-3-(4-Ethynylphenyl)-2-(2-(naphthalen-2-yl)vinyl)pyrido[2,3-d]pyrimidin-4(3H)-one] showed a CC50 of 6.17 µM.

Same assay, conditions: SK-MEL-2, Melanoma
With `C#Cc1ccc(-n2c(/C=C/c3ccc4ccccc4c3)nc3ncccc3c2=O)cc1` [4s, (E)-3-(4-Ethynylphenyl)-2-(2-(naphthalen-2-yl)vinyl)pyrido[2,3-d]pyrimidin-4(3H)-one] the “Log10 TGI50” value was −5.21.

What follows are compounds tested on HCC-2998 (assay: SRB 48 h growth assay, Colon HCC-2998). Conditions: HCC-2998, Colon.
Format: cell-based, human
`C#Cc1ccc(-n2c(/C=C/c3ccc4ccccc4c3)nc3ncccc3c2=O)cc1` [4s, (E)-3-(4-Ethynylphenyl)-2-(2-(naphthalen-2-yl)vinyl)pyrido[2,3-d]pyrimidin-4(3H)-one] was tested, and the “Log10 TGI50” value was −5.30.

Same assay, conditions: Homo sapiens, HCC-2998, Colon, read-out: Growth Inhibition GI50
`C#Cc1ccc(-n2c(/C=C/c3ccc4ccccc4c3)nc3ncccc3c2=O)cc1` [4s, (E)-3-(4-Ethynylphenyl)-2-(2-(naphthalen-2-yl)vinyl)pyrido[2,3-d]pyrimidin-4(3H)-one] gave a GI50 of 2.32 µM.

Same assay, conditions: Homo sapiens, HCC-2998, Colon, read-out: Log10 GI50 (converted)
`C#Cc1ccc(-n2c(/C=C/c3ccc4ccccc4c3)nc3ncccc3c2=O)cc1` [4s, (E)-3-(4-Ethynylphenyl)-2-(2-(naphthalen-2-yl)vinyl)pyrido[2,3-d]pyrimidin-4(3H)-one] was tested, and the GI50 was 2.29 µM.

Same assay, conditions: Homo sapiens, HCC-2998, Colon, read-out: Log10 LC50 (converted)
In the case of `C#Cc1ccc(-n2c(/C=C/c3ccc4ccccc4c3)nc3ncccc3c2=O)cc1` [4s, (E)-3-(4-Ethynylphenyl)-2-(2-(naphthalen-2-yl)vinyl)pyrido[2,3-d]pyrimidin-4(3H)-one], the CC50 is reported as 5.01 µM.

What follows are compounds tested on OVCAR-5 (assay: SRB 48 h growth assay, Ovarian OVCAR-5). Conditions: Homo sapiens, OVCAR-5, Ovarian, read-out: Growth Inhibition GI50.
Format: cell-based, human
Compound `C#Cc1ccc(-n2c(/C=C/c3ccc4ccccc4c3)nc3ncccc3c2=O)cc1` [4s, (E)-3-(4-Ethynylphenyl)-2-(2-(naphthalen-2-yl)vinyl)pyrido[2,3-d]pyrimidin-4(3H)-one] has a GI50 of 6.88 µM.

Same assay, conditions: Homo sapiens, OVCAR-5, Ovarian, read-out: Log10 GI50 (converted)
`C#Cc1ccc(-n2c(/C=C/c3ccc4ccccc4c3)nc3ncccc3c2=O)cc1` [4s, (E)-3-(4-Ethynylphenyl)-2-(2-(naphthalen-2-yl)vinyl)pyrido[2,3-d]pyrimidin-4(3H)-one] gave a GI50 of 6.92 µM.

Same assay, conditions: Homo sapiens, OVCAR-5, Ovarian, read-out: Log10 LC50 (converted)
Work on `C#Cc1ccc(-n2c(/C=C/c3ccc4ccccc4c3)nc3ncccc3c2=O)cc1` [4s, (E)-3-(4-Ethynylphenyl)-2-(2-(naphthalen-2-yl)vinyl)pyrido[2,3-d]pyrimidin-4(3H)-one] yielded a CC50 of over 100 µM.

Same assay, conditions: OVCAR-5, Ovarian
In the case of `C#Cc1ccc(-n2c(/C=C/c3ccc4ccccc4c3)nc3ncccc3c2=O)cc1` [4s, (E)-3-(4-Ethynylphenyl)-2-(2-(naphthalen-2-yl)vinyl)pyrido[2,3-d]pyrimidin-4(3H)-one], the “Log10 TGI50” value is reported as over −4.00.

Each compound was assayed on SR (assay: SRB 48 h growth assay, Leukemia SR). Conditions: not given.
Format: cell-based, human
In the case of `C#Cc1ccc(-n2c(/C=C/c3ccc4ccccc4c3)nc3ncccc3c2=O)cc1` [4s, (E)-3-(4-Ethynylphenyl)-2-(2-(naphthalen-2-yl)vinyl)pyrido[2,3-d]pyrimidin-4(3H)-one], the “Log10 TGI50” value is reported as over −4.00.

Same assay, conditions: Homo sapiens, read-out: Growth Inhibition GI50
In the case of `C#Cc1ccc(-n2c(/C=C/c3ccc4ccccc4c3)nc3ncccc3c2=O)cc1` [4s, (E)-3-(4-Ethynylphenyl)-2-(2-(naphthalen-2-yl)vinyl)pyrido[2,3-d]pyrimidin-4(3H)-one], the GI50 is reported as 1.4 µM.

Same assay, conditions: Homo sapiens, read-out: Log10 GI50 (converted)
Compound `C#Cc1ccc(-n2c(/C=C/c3ccc4ccccc4c3)nc3ncccc3c2=O)cc1` [4s, (E)-3-(4-Ethynylphenyl)-2-(2-(naphthalen-2-yl)vinyl)pyrido[2,3-d]pyrimidin-4(3H)-one] has a GI50 of 1.41 µM.

Same assay, conditions: Homo sapiens, read-out: Log10 LC50 (converted)
In the case of `C#Cc1ccc(-n2c(/C=C/c3ccc4ccccc4c3)nc3ncccc3c2=O)cc1` [4s, (E)-3-(4-Ethynylphenyl)-2-(2-(naphthalen-2-yl)vinyl)pyrido[2,3-d]pyrimidin-4(3H)-one], the CC50 is reported as over 100 µM.

The compounds below were run on CAKI-1 (assay: SRB 48 h growth assay, Renal CAKI-1). Conditions: CAKI-1, Renal.
Format: cell-based, human
In the case of `C#Cc1ccc(-n2c(/C=C/c3ccc4ccccc4c3)nc3ncccc3c2=O)cc1` [4s, (E)-3-(4-Ethynylphenyl)-2-(2-(naphthalen-2-yl)vinyl)pyrido[2,3-d]pyrimidin-4(3H)-one], the “Log10 TGI50” value is reported as over −4.31.

Same assay, conditions: Homo sapiens, CAKI-1, Renal, read-out: Growth Inhibition GI50
In the case of `C#Cc1ccc(-n2c(/C=C/c3ccc4ccccc4c3)nc3ncccc3c2=O)cc1` [4s, (E)-3-(4-Ethynylphenyl)-2-(2-(naphthalen-2-yl)vinyl)pyrido[2,3-d]pyrimidin-4(3H)-one], the GI50 is reported as 2.98 µM.

Same assay, conditions: Homo sapiens, CAKI-1, Renal, read-out: Log10 GI50 (converted)
`C#Cc1ccc(-n2c(/C=C/c3ccc4ccccc4c3)nc3ncccc3c2=O)cc1` [4s, (E)-3-(4-Ethynylphenyl)-2-(2-(naphthalen-2-yl)vinyl)pyrido[2,3-d]pyrimidin-4(3H)-one] gave a GI50 of 2.95 µM.

Same assay, conditions: Homo sapiens, CAKI-1, Renal, read-out: Log10 LC50 (converted)
With `C#Cc1ccc(-n2c(/C=C/c3ccc4ccccc4c3)nc3ncccc3c2=O)cc1` [4s, (E)-3-(4-Ethynylphenyl)-2-(2-(naphthalen-2-yl)vinyl)pyrido[2,3-d]pyrimidin-4(3H)-one] the CC50 was over 100 µM.

Each compound was assayed on SN12C (assay: SRB 48 h growth assay, Renal SN12C). Conditions: not given.
Format: cell-based, human
For `C#Cc1ccc(-n2c(/C=C/c3ccc4ccccc4c3)nc3ncccc3c2=O)cc1` [4s, (E)-3-(4-Ethynylphenyl)-2-(2-(naphthalen-2-yl)vinyl)pyrido[2,3-d]pyrimidin-4(3H)-one], the “Log10 TGI50” value was over −4.00.

Same assay, conditions: Homo sapiens, read-out: Growth Inhibition GI50
Compound `C#Cc1ccc(-n2c(/C=C/c3ccc4ccccc4c3)nc3ncccc3c2=O)cc1` [4s, (E)-3-(4-Ethynylphenyl)-2-(2-(naphthalen-2-yl)vinyl)pyrido[2,3-d]pyrimidin-4(3H)-one] has a GI50 of 3.29 µM.

Same assay, conditions: Homo sapiens, read-out: Log10 GI50 (converted)
`C#Cc1ccc(-n2c(/C=C/c3ccc4ccccc4c3)nc3ncccc3c2=O)cc1` [4s, (E)-3-(4-Ethynylphenyl)-2-(2-(naphthalen-2-yl)vinyl)pyrido[2,3-d]pyrimidin-4(3H)-one] gave a GI50 of 3.31 µM.

Same assay, conditions: Homo sapiens, read-out: Log10 LC50 (converted)
For `C#Cc1ccc(-n2c(/C=C/c3ccc4ccccc4c3)nc3ncccc3c2=O)cc1` [4s, (E)-3-(4-Ethynylphenyl)-2-(2-(naphthalen-2-yl)vinyl)pyrido[2,3-d]pyrimidin-4(3H)-one], the CC50 was over 100 µM.

The compounds below were run on MALME-3M (assay: SRB 48 h growth assay, Melanoma MALME-3M). Conditions: not given.
Format: cell-based, human
For `C#Cc1ccc(-n2c(/C=C/c3ccc4ccccc4c3)nc3ncccc3c2=O)cc1` [4s, (E)-3-(4-Ethynylphenyl)-2-(2-(naphthalen-2-yl)vinyl)pyrido[2,3-d]pyrimidin-4(3H)-one], the “Log10 TGI50” value was over −4.00.

Same assay, conditions: Homo sapiens, read-out: Growth Inhibition GI50
With `C#Cc1ccc(-n2c(/C=C/c3ccc4ccccc4c3)nc3ncccc3c2=O)cc1` [4s, (E)-3-(4-Ethynylphenyl)-2-(2-(naphthalen-2-yl)vinyl)pyrido[2,3-d]pyrimidin-4(3H)-one] the GI50 was 4.97 µM.

Same assay, conditions: Homo sapiens, read-out: Log10 GI50 (converted)
`C#Cc1ccc(-n2c(/C=C/c3ccc4ccccc4c3)nc3ncccc3c2=O)cc1` [4s, (E)-3-(4-Ethynylphenyl)-2-(2-(naphthalen-2-yl)vinyl)pyrido[2,3-d]pyrimidin-4(3H)-one] was tested, and the GI50 was 6.31 µM.

Same assay, conditions: Homo sapiens, read-out: Log10 LC50 (converted)
`C#Cc1ccc(-n2c(/C=C/c3ccc4ccccc4c3)nc3ncccc3c2=O)cc1` [4s, (E)-3-(4-Ethynylphenyl)-2-(2-(naphthalen-2-yl)vinyl)pyrido[2,3-d]pyrimidin-4(3H)-one] was tested, and the CC50 was over 100 µM.

What follows are compounds tested on A498 (assay: SRB 48 h growth assay, Renal A498). Conditions: not given.
Format: cell-based, human
`C#Cc1ccc(-n2c(/C=C/c3ccc4ccccc4c3)nc3ncccc3c2=O)cc1` [4s, (E)-3-(4-Ethynylphenyl)-2-(2-(naphthalen-2-yl)vinyl)pyrido[2,3-d]pyrimidin-4(3H)-one] was tested, and the “Log10 TGI50” value was −5.23.

Same assay, conditions: Homo sapiens, read-out: Growth Inhibition GI50
In the case of `C#Cc1ccc(-n2c(/C=C/c3ccc4ccccc4c3)nc3ncccc3c2=O)cc1` [4s, (E)-3-(4-Ethynylphenyl)-2-(2-(naphthalen-2-yl)vinyl)pyrido[2,3-d]pyrimidin-4(3H)-one], the GI50 is reported as 1.69 µM.

Same assay, conditions: Homo sapiens, read-out: Log10 GI50 (converted)
With `C#Cc1ccc(-n2c(/C=C/c3ccc4ccccc4c3)nc3ncccc3c2=O)cc1` [4s, (E)-3-(4-Ethynylphenyl)-2-(2-(naphthalen-2-yl)vinyl)pyrido[2,3-d]pyrimidin-4(3H)-one] the GI50 was 1.7 µM.

Same assay, conditions: Homo sapiens, read-out: Log10 LC50 (converted)
For `C#Cc1ccc(-n2c(/C=C/c3ccc4ccccc4c3)nc3ncccc3c2=O)cc1` [4s, (E)-3-(4-Ethynylphenyl)-2-(2-(naphthalen-2-yl)vinyl)pyrido[2,3-d]pyrimidin-4(3H)-one], the CC50 was 5.89 µM.
